# Measured values published in patent US12024503B2, “Benzethers and anilines of pyrazolyl-amino-pyrimidinyl derivatives, and compositions and methods thereof” (LYNK PHARMACEUTICALS CO. LTD., priority 2019, dated 2024).
# Like-named read-outs stand apart in the source and are kept apart here.
# Legend:
# Format in all cases: biochemical
# [1] = target: T1, JAK2 (Homo sapiens, UniProt O60674); assay: JAK2 microfluidic kinase assay (Caliper EZ Reader II, FAM labeled peptide substrate); details: (0.25 nM), 1 mM ATP
# T1 construct: purchased Carna Biosciences
# Procedure: (§1) Compounds were tested against JAK1, JAK2, JAK2V617F and TYK2.
# (§2) Assay Formats: JAK activity was determined in the reaction buffer 50 mM HEPES, 0.01% Brij35, 10 mMMgCl2, 2 mMDTT by a microfluidic assay. The phosphorylation of a FAM labeled peptide substrate was monitored in the Caliper EZ Reader II (Perkin Elmer). The assay condition for each batch of enzyme (Carna Biosciences) was optimized to obtain 10% conversion rate of peptide substrate.
# (§3) The test compounds were dissolved in DMSO to a stock concentration of 10 mM. 3-fold serially diluted compounds with top concentration of 5 μM were pre-incubated with JAK1, JAK2, JAK2V617F or TYK2 for 10 min at ambient temperature. The final DMSO concentration of assay mixture was 1%. FAM labeled peptide substrate (final concentration […]) and ATP (1 mM concentration) were sequentially added to initiate the kinase reaction at 28° C. The reaction was stopped by adding 50 mMEDTA. The reaction time for JAK1, JAK2, JAK2V617F and TYK2 was 120 min, 20 min, 30 min and 10 min, respectively.
# (§4) The well in the test plate without enzyme was defined as 100% inhibition. And the well without compound but with equivalent DMSO was defined as no inhibition. The percent inhibition was calculated by the following formula. % Inhibition=(Conversionmax−Conversionsample)/(Conversionmax−Conversionmin)*100Conversionmax means the conversion rate in the positive well without addition of compound Conversionmin means the conversion rate in the well without addition of enzyme Conversionsample means the conversion rate of test compounds
# (§5) The dose-response (percent inhibition) curve was plotted and IC50 values were determined by GraphPad software.
# [2] = target: T2, TYK2 (Homo sapiens, UniProt P29597); assay: TYK2 microfluidic kinase assay (Caliper EZ Reader II, FAM labeled peptide substrate); details: (2.5 nM), 1 mM ATP; Table 2; read-out: IC50 TYK2 (2.5 nM) (1 mM ATP)
# T2 construct: purchased Carna Biosciences
# Procedure: as §1, §2, §3, §4, §5
# [3] = target: T3, JAK2V617F (Homo sapiens, UniProt O60674, V617F); assay: JAK2V617F microfluidic kinase assay (Caliper EZ Reader II, FAM labeled peptide substrate); details: (2.5 nM), 1 mM ATP
# T3 construct: purchased Carna Biosciences
# Procedure: as §1, §2, §3, §4, §5
# [4] = target: T4, JAK1 (Homo sapiens, UniProt P23458); assay: JAK1 microfluidic kinase assay (Caliper EZ Reader II, FAM labeled peptide substrate); details: (5 nM), 1 mM ATP
# T4 construct: purchased Carna Biosciences
# Procedure: as §1, §2, §3, §4, §5
# [5] = Table 2, read-out: IC50 JAK2 (0.25 nM) (1 mM ATP)
# [6] = Table 2, read-out: IC50 J2V617F (2.5 nM) (1 mM ATP)
# [7] = Table 2, read-out: IC50 JAK1 (5 nM) (1 mM ATP)
# T1 sequence (O60674 whole entry): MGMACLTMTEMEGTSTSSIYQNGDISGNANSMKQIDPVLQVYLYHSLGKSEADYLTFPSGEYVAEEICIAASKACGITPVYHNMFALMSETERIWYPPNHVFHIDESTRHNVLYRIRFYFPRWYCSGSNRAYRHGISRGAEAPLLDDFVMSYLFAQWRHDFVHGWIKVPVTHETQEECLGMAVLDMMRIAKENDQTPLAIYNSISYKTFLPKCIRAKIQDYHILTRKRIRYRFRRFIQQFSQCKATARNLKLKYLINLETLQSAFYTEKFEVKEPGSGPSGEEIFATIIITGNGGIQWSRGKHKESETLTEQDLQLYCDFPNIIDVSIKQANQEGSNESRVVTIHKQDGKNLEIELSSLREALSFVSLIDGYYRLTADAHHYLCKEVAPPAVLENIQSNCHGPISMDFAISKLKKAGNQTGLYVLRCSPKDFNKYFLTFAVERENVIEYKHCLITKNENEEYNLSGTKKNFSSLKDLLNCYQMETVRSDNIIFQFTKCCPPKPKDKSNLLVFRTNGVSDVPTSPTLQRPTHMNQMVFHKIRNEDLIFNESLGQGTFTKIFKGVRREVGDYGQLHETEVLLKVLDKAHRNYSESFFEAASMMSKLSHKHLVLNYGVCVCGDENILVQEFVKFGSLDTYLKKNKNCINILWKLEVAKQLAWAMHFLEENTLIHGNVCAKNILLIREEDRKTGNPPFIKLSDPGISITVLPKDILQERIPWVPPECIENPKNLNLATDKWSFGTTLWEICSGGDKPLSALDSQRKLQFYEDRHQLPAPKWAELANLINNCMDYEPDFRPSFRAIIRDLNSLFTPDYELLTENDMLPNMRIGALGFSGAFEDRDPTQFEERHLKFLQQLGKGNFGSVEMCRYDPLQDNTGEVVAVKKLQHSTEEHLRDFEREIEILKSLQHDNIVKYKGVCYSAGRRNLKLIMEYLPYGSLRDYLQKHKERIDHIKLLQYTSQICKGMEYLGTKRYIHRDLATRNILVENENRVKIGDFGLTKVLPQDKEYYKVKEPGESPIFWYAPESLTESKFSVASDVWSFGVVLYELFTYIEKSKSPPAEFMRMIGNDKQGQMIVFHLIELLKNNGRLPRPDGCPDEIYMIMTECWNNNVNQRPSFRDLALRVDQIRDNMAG
# T3 sequence (O60674 whole entry V617F): as the sequence (O60674 whole entry) above, with V617F counted along it
# T2 sequence (P29597 whole entry): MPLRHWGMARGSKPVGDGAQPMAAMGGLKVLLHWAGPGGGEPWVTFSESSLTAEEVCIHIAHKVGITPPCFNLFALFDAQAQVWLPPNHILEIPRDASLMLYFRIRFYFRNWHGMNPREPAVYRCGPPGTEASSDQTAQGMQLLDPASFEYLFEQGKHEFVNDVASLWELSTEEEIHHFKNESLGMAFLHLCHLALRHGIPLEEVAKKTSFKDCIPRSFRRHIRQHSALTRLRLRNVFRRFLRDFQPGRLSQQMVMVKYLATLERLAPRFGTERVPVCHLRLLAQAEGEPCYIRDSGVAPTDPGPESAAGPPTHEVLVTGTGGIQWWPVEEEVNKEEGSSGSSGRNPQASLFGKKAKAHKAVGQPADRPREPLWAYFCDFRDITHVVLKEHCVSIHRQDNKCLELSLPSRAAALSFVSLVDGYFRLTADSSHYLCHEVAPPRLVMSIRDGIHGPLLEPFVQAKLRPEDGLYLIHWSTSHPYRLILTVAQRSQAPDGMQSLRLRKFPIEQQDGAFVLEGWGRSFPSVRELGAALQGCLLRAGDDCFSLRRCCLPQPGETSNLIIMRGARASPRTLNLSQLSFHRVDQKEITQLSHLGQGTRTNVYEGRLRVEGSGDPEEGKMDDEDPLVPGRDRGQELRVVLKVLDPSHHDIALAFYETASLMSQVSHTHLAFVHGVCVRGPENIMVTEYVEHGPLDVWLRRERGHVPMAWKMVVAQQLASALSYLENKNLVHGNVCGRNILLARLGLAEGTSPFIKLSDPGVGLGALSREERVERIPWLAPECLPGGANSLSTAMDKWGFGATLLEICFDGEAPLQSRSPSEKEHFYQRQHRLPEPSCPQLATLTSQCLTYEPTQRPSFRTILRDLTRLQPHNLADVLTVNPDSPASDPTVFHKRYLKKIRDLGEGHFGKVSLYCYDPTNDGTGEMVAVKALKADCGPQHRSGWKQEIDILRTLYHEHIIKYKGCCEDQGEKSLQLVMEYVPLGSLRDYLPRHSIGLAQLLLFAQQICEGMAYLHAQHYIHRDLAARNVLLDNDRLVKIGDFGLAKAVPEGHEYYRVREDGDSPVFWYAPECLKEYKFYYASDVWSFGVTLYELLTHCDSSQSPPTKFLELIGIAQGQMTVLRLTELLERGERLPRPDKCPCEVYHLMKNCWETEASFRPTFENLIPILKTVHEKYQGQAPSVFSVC
# T4 sequence (P23458 whole entry): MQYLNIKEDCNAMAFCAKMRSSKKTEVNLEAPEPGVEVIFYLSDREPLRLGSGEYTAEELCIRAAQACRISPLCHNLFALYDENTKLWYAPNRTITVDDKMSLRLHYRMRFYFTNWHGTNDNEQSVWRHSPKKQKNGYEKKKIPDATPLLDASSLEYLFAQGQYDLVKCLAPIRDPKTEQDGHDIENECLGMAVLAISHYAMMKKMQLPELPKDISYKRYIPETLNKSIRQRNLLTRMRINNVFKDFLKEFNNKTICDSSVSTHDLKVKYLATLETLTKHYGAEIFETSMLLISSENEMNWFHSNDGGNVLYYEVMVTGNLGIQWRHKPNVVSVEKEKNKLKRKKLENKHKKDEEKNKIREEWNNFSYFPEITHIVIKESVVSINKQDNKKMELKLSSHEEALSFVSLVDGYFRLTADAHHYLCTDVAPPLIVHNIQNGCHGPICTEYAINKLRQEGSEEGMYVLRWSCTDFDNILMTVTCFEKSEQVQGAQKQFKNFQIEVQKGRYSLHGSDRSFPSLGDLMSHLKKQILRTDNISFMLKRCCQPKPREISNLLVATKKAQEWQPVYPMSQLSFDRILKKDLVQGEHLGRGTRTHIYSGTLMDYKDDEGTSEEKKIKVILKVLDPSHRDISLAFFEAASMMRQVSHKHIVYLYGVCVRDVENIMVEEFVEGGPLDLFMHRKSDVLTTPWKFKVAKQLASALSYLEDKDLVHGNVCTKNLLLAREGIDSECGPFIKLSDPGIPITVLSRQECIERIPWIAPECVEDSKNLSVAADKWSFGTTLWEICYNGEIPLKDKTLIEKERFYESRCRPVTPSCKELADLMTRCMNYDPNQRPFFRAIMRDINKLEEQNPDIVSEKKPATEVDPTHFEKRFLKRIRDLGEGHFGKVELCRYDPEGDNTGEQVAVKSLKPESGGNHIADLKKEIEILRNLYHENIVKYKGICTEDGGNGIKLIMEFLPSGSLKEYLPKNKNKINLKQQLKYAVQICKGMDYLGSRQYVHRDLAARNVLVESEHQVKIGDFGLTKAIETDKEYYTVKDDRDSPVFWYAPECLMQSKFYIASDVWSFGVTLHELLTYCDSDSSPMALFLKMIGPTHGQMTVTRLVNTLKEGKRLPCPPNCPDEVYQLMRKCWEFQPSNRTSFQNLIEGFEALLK
SMILES,"IC50 [1, 5] [nM]",IC50 [2] [nM],"IC50 [3, 6] [nM]","IC50 [4, 7] [nM]","IC50 ([1]; Table 3B, literature compounds, read-out: JAK2 (0.25 nM) (1 mM ATP)) [nM]","IC50 ([3]; Table 3B, literature compounds, read-out: J2V617F (2.5 nM) (1 mM ATP)) [nM]","IC50 ([4]; Table 3B, literature compounds, read-out: JAK1 (5 nM) (1 mM ATP)) [nM]"
"Cc1cnc(Nc2cnn(C3CC3)c2)nc1-c1ccc(OCC(C)(C)C#N)cc1 [Example 1, 3-(4-(2-((1-cyclopropyl-1H-pyrazol-4-yl)amino)-5-methylpyrimidin-4-yl)phenoxy)-2,2-dimethylpropanenitrile]",0.27,12,3.18,4.8,–,–,–
"Cc1cnc(Nc2cnn(C3CC3)c2)nc1-c1ccc(OCC2(C#N)CCC2)cc1 [Example 3, 1-((4-(2-((1-cyclopropyl-1H-pyrazol-4-yl)amino)-5-methylpyrimidin-4-yl)phenoxy)methyl)cyclobutane-carbonitrile]",–,21.9,28.1,8.86,–,–,–
"Cc1cnc(Nc2cnn(C3CC3)c2)nc1-c1ccc(OCC(C)(C)C#N)c(F)c1 [Example 4, 3-(4-(2-((1-cyclopropyl-1H-pyrazol-4-yl)amino)-5-methylpyrimidin-4-yl)-2-fluorophenoxy)-2,2-dimethylpropanenitrile]",0.425,< 1.25,< 1.25,< 2.5,–,–,–
"Cc1cnc(Nc2cnn(C3CC3)c2)nc1-c1ccc(OCC2(C#N)CC2)c(F)c1 [Example 5, 1-((4-(2-((1-cyclopropyl-1H-pyrazol-4-yl)amino)-5-methylpyrimidin-4-yl)-2-fluorophenoxy)methyl)cyclopropane-carbonitrile]",–,3.26,< 1.25,3.32,–,–,–
"Cc1cnc(Nc2cnn(C3CCOCC3)c2)nc1-c1ccc(OCC2(C#N)CC2)c(F)c1 [Example 6, 1-((2-fluoro-4-(5-methyl-2-((1-(tetrahydro-2H-pyran-4-yl)-1H-pyrazol-4-yl)amino)pyrimidin-4-yl)phenoxy)methyl)cyclopropane-carbonitrile]",–,< 1.25,< 1.25,7.42,–,–,–
"Cc1cnc(Nc2cnn(C3CCOCC3)c2)nc1-c1ccc(OCC(C)(C)C#N)c(F)c1 [Example 7, 3-(2-fluoro-4-(5-methyl-2-((1-(tetrahydro-2H-pyran-4-yl)-1H-pyrazol-4-yl)amino)pyrimidin-4-yl)phenoxy)-2,2-dimethylpropanenitrile]",–,< 1.25,< 1.25,< 2.5,–,–,–
"Cc1cnc(Nc2cnn(C3CC3)c2)nc1-c1ccc(OCC2(C#N)CC2)nc1 [Example 11, 1-(((5-(2-((l-cyclopropyl-1H-pyrazol-4-yl)amino)-5-methylpyrimidin-4-yl)pyridin-2-yl)oxy)methyl)cyclopropanecarbonitrile]",–,218,138,65.1,–,–,–
"Cc1cnc(Nc2cnn(C)c2)nc1-c1ccc(OCCC#N)c(F)c1 [Example 12, 3-(2-fluoro-4-(5-methyl-2-((1-methyl-1H-pyrazol-4-yl)amino)pyrimidin-4-yl)phenoxy)propanenitrile]",32.3,64.7,–,19.6,–,–,–
"Cc1cnc(Nc2cnn(C3CCOCC3)c2)nc1-c1ccc(OCC2(C#N)CC2)nc1 [Example 14, 1-(((5-(5-methyl-2-((1-(tetrahydro-2H-pyran-4-yl)-1H-pyrazol-4-yl)amino)pyrimidin-4-yl)pyridin-2-yl)oxy)methyl)cyclopropanecarbonitrile]",–,351,163,202,–,–,–
"Cc1cnc(Nc2cnn(C3CCN(C)CC3)c2)nc1-c1ccc(OCC(C)(C)C#N)cc1 [Example 17, 2,2-dimethyl-3-(4-(5-methyl-2-((1-(1-methylpiperidin-4-yl)-1H-pyrazol-4-yl)amino)pyrimidin-4-yl)phenoxy)propanenitrile]",< 0.25,< 1.25,< 1.25,< 2.5,–,–,–
"Cc1cnc(Nc2cnn(C3CCN(C)CC3)c2)nc1-c1ccc(OCC(C)(C)C#N)c(F)c1 [Example 18, 3-(2-fluoro-4-(5-methyl-2-((1-(1-methylpiperidin-4-yl)-1H-pyrazol-4-yl)amino)pyrimidin-4-yl)phenoxy)-2,2-dimethylpropanenitrile]",0.427,< 1.25,–,< 2.5,–,–,–
"Cc1cnc(Nc2cnn(C3CCN(C)CC3)c2)nc1-c1ccc(OCC2(C#N)CC2)c(F)c1 [Example 20, 1-((2-fluoro-4-(5-methyl-2-((1-(1-methylpiperidin-4-yl)-1H-pyrazol-4-yl)amino)pyrimidin-4-yl)phenoxy)methyl)cyclopropane-carbonitrile]",0.251,< 1.25,–,< 2.5,–,–,–
"Cn1cc(Nc2ncc(Cl)c(-c3ccc(OCC(C)(C)C#N)cc3)n2)cn1 [Example 29, 3-(4-(5-chloro-2-((1-methyl-1H-pyrazol-4-yl)amino)pyrimidin-4-yl)phenoxy)-2,2-dimethylpropanenitrile]",3.4,41.4,–,14.1,–,–,–

# Other lines, results leading:
"IC50 [1, 5] [nM]",IC50 [2] [nM],"IC50 [3, 6] [nM]","IC50 [4, 7] [nM]","IC50 ([1]; Table 3B, literature compounds, read-out: JAK2 (0.25 nM) (1 mM ATP)) [nM]","IC50 ([3]; Table 3B, literature compounds, read-out: J2V617F (2.5 nM) (1 mM ATP)) [nM]","IC50 ([4]; Table 3B, literature compounds, read-out: JAK1 (5 nM) (1 mM ATP)) [nM]",SMILES
0.9,106,–,28.9,–,–,–,"CC(C)(C#N)COc1ccc(-c2nc(Nc3cnn(C4CC4)c3)ncc2Cl)cc1 [Example 32, 3-(4-(5-chloro-2-((1-cyclopropyl-1H-pyrazol-4-yl)amino)pyrimidin-4-yl)phenoxy)-2,2-dimethylpropanenitrile]"
0.741,< 1.25,–,14.5,–,–,–,"Cc1cnc(Nc2cnn(C3CC3)c2)nc1-c1ccc(NCC(C)(C)C#N)c(F)c1 [Example 37, 3-((4-(2-((1-cyclopropyl-1H-pyrazol-4-yl)amino)-5-methylpyrimidin-4-yl)-2-fluorophenyl)amino)-2,2-dimethylpropanenitrile]"
1.09,2.62,–,7.49,–,–,–,"Cc1cnc(Nc2cnn(C)c2)nc1-c1ccc(OCC(C)(C)C#N)cc1 [Example 38, 2,2-dimethyl-3-(4-(5-methyl-2-((1-methyl-1H-pyrazol-4-yl)amino)pyrimidin-4-yl)phenoxy)propanenitrile]"
0.377,< 1.25,–,< 2.5,–,–,–,"Cc1cnc(Nc2cnn(C3CCNCC3)c2)nc1-c1ccc(OCC(C)(C)C#N)c(F)c1 [Example 39, 3-(2-fluoro-4-(5-methyl-2-((1-(piperidin-4-yl)-1H-pyrazol-4-yl)amino)pyrimidin-4-yl)phenoxy)-2,2-dimethylpropanenitrile]"
0.654,1.78,–,< 2.5,–,–,–,"Cc1cnc(Nc2cnn(C(C)C(F)(F)F)c2)nc1-c1ccc(OCC(C)(C)C#N)c(F)c1 (stereo not drawn) [Example 40, 3-(2-fluoro-4-(5-methyl-2-((1-(1,1,1-trifluoropropan-2-yl)-1H-pyrazol-4-yl)amino)pyrimidin-4-yl)phenoxy)-2,2-dimethylpropanenitrile]"
32.3,64.7,–,19.6,–,–,–,"Cc1cnc(Nc2cnn(C)c2)nc1-c1ccc(OCCC#N)cc1 [Example 41, 3-(4-(5-methyl-2-((1-methyl-1H-pyrazol-4-yl)amino)pyrimidin-4-yl)phenoxy)propanenitrile]"
27.4,102,–,19.2,–,–,–,"Cc1cnc(Nc2cnn(C3CC3)c2)nc1-c1ccc(NCC2(C#N)CC2)cc1 [Example 42, 1-(((4-(2-((1-cyclopropyl-1H-pyrazol-4-yl)amino)-5-methylpyrimidin-4-yl)phenyl)amino)methyl)cyclopropane carbonitrile]"
3.12,98.4,–,26.8,–,–,–,"Cc1cnc(Nc2cnn(C3CCN(C)CC3)c2)nc1-c1ccc(NCC2(C#N)CC2)cc1 [Example 43, 1-(((4-(5-methyl-2-((1-(1-methylpiperidin-4-yl)-1H-pyrazol-4-yl)amino)pyrimidin-4-yl)phenyl)amino)methyl)cyclopropane carbonitrile]"
1.46,173,–,35.3,–,–,–,"N#CC1(CNc2ccc(-c3nc(Nc4cnn(C5CCNCC5)c4)ncc3Cl)cc2)CC1 [Example 44, 1-(((4-(5-chloro-2-((1-(piperidin-4-yl)-1H-pyrazol-4-yl)amino)pyrimidin-4-yl)phenyl)amino)methyl)cyclopropane carbonitrile]"
–,–,–,–,39.6,60,25.7,"CCCOc1ccc(-c2nc(Nc3cnn(C)c3)ncc2C)cc1F [Example 48, 4-(3-fluoro-4-propoxyphenyl)-5-methyl-N-(1-methyl-1H-pyrazol-4-yl)pyrimidin-2-amine, reference compound]"
